# Experimental data: patent publication US6235509A (priority 1996, dated 2001)
# System: chymotrypsin
# Format: biochemical
# Conditions: pH 8.0
structure (smiles),measurement,value
Oc1cccnc1 [3-hydroxypyridine],kinetics of the inhibition of chymotrypsin by AEBSF,not changed
